{"source": "patent US12122811B2", "about": "“BDNF mimetic peptide amphiphiles” (Northwestern University, priority 2018, dated 2024)", "key": {"[1]": {"test_system": "primary mouse cortical neurons", "test": "Morphometric analysis of neurites (MAP2, SMI312 immunocytochemistry)", "format": "cell-based", "details": "24 h", "experimental": "For morphometric analysis and cell viability assays, cells were cultured in 24 or 48 well plates at a density of 25,000 or 40,000 cells/well respectively, for three days before being treated. Cells were then treated for 24 hours, 3 days or 7 DIV. Samples were fixed in 4% PFA for 15 min (20 min for gels) at room temperature (RT) for immunofluorescence studies.\nImmunofluorescence. For immunofluorescence, fixed samples (4% PFA for 15 min at RT) were incubated with primary antibodies overnight and Alexa 488 or Alexa 555 secondary antibodies (1:2000, Invitrogen) were used for 2 h at room temperature. The following primary antibodies were used: mouse anti-Tuj-1 (neuronal marker 1:4000, BioLegend), rabbit anti-Tuj-1 (neuronal marker, 1:4000, BioLegend) rabbit anti-MAP2 (marker for mature neurons 1:2000, BioLegend), mouse anti-SMI312 (axonal filament marker 1:1000, BioLegend), rabbit anti-Synaptophysin (marker for synaptic vesicles, 1:1000, Abcam) and DAPI (nuclear stain, 1:2000, Invitrogen). If not already in a glass bottom plate (MatTek), the preparations were mounted with Immu-Mount (Thermo Scientific) for imaging.\nImaging and Morphometric Analysis. Throughout the experiments, a digital camera (Nikon) mounted on a tissue culture microscope was used to take bright field images of cells. Nikon A1R confocal laser-scanning microscope with GaAsP detectors was used to visualize and image fluorescent preparations. Images were processed using an ImageJ (National Institutes of Health) plugin. Confocal images were reconstructed by NIS Elements Advanced Research Microscope Imaging software (version 4.20) or Imaris program (version 8.1, Bitplane Scientific software) for 3D interactive data viewing with normal or shadow projections of cells screened under Nikon A1R confocal laser-scanning microscope with GaAsP detectors.\nFor morphometric analysis, NeuronJ was used to trace and measure neuronal extensions.^4 For quantification of number of primary neurites and neurite length, a minimum of 60 randomly selected cells were analyzed with a minimum of 2 independent batches of culture for each condition. The images were arranged in Adobe Photoshop (v.7.0), with adjustments for contrast, brightness and color balance to obtain optimal visual reproduction of data."}, "cortical neurons": {"test_system": "cortical neurons", "test": "Whole-cell current-clamp (patch clamp) recordings of neurons on PA gels", "format": "cell-based, mouse", "details": "neurons on gels up to one week; relative to E2 Filler PA", "experimental": "Patch Clamp. Whole-cell current-clamp recordings were made from visually identified primary cultured neurons using inverted Olympus IX51 microscope equipped with a 40× objective. Recording pipettes were made of glass capillaries using a horizontal Sutter P-1000 puller yielding a 3-5 MΩ resistance pipette when filled with standard intracellular solution containing (in mM): 120 K-MeSO4, 10 KCl, 10 HEPES, 10 Na2-phosphocreatine, 4 Mg-ATP, 0.4 Na3-GTP, pH 7.3; 285-290 mOsm. Gels with neurons were continuously perfused with standard oxygenated aCSF bath solution (in mM): 125 NaCl, 26 NaHCO3, 2.5 KCl, 1.25 NaH2PO4, 1 MgSO4, 25 glucose, 2 CaCl2, pH 7.4 at 32-34° C. Whole-cell current-clamp data was acquired using an […] amplifier (Molecular Devices, USA) and digitized at 10 kHz (filtered at 3 kHz) with the neurons held at −65 mV. Resting membrane potential was measured immediately after breaking into the cell. Input resistance was calculated as the slope of the voltage-current curve using 500 ms current steps from −50 pA to 30 pA at 10 pA steps. There were no differences in resting membrane potentials or input resistance between the three groups. […] AP threshold was calculated where the first derivative of the up phase of the trace equals 5 mV/ms. […] Data was analyzed using MATLAB protocols designed specifically for these experiments."}, "[2]": {"test_system": "mouse model of spinal cord injury", "test": "Mouse model of spinal cord injury, Basso Mouse Scale hind limb scoring", "format": "in vivo", "details": "for hindlimb function: over 12 weeks, vs E2 PA or saline", "text": "The spinal cord injury procedures used follow a standardized protocol to ensure a reproducible injury. Mice were anesthetized and their back is opened to reveal the vertebral column. The vertebral bone at T11 was surgically removed to reveal the spinal cord tissue. The mice were then transferred the impactor machine which is used to inflict a compression injury on the exposed spinal cord. The spinal cord was held in place using stereotactic clamps. The instrument inflicts a force of 70-80 kDynes and dwells in the place of the impact for 60 seconds to simulate a crush injury accident. This injury is quite severe. After each impact was performed, the instrument supplies a graph corresponding to the real force and trajectory of the impactor. This graph is used to compare and ensure that all animals receive an injury of the same nature. After the injury is inflicted, the animals were closed and allowed to rest for 24 hours.\nThe next day, the animals were re-opened and prepared for the “treatment” surgery. Before beginning the procedure, all animals underwent a behavioral assessment and mice with hind limb movement were discarded from the study. When the animal is re-opened, there was typically a dark, bruised area apparent where the crush injury took place the previous day. This is where the treatment was injected. A Hamilton syringe attached to a glass-pulled needle with a diameter of ˜300 μm was used to puncture the bruised dermis of the tissue and the treatment was injected into the underlying tissue cavity. Treatment types include; saline, and the C16V2A2E2 (E2) non-bioactive PA gel as negative controls, as well as the BDNF PA co-assembled at 20 mol % with the E2 non-bioactive PA gel.\nAfter injection, the animals were closed and returned to cages to recover. Over the next 12 weeks, blinded hind limb behavioral scoring was performed to assess any functional changes (FIG. 21). A standardized “Basso Mouse Scale” was used (Basso et al. J Neurotrauma. 2006 May; 23(5):635-59.; herein incorporated by reference in its entirety). Two blinded researchers were either side of a runway where the mouse was guided to move in a straight line. As the mouse walks, each researcher grades the limb movement. Any discrepancies in evaluation were re-evaluated by a third researcher. The score for the two limbs was averaged and marked as the score for that animal."}}, "note": "Positions of bridges follow the written chain, without caps; N, C: chain ends. Non-standard residues stand in square brackets, D forms with d. Residues, ends and D or L forms follow the SMILES beside them. Chains are numbered I, II in the order given. *: point of attachment. PEG6 = NCCOCCOCCOCCOCCOCCOCCC(=O)O; Palmitoyl = CCCCCCCCCCCCCCCC(=O)*", "data": [{"smiles": "CCCCCCCCCCCCCCCC(=O)N[C@H](C(=O)N[C@H](C(=O)N[C@@H](C)C(=O)N[C@@H](C)C(=O)N[C@@H](CCC(=O)O)C(=O)N[C@@H](CCC(=O)O)C(=O)N[C@@H](CCC(=O)O)C(=O)N[C@@H](CCC(=O)O)C(=O)NCCOCCOCCOCCOCCOCCOCCC(=O)NCCCC[C@@H]1NC(=O)[C@H]2CCCN2C(=O)[C@H](CCCNC(=N)N)NC(=O)[C@H](CCCCN)NC(=O)[C@H](CCCCN)NC1=O)C(C)C)C(C)C", "note": "[BDNF PA, RKK(aK)(dP)-(PEG6 Spacer)-EEEEAAVV-C16 (SEQ ID NO: 5)] (I: Palmitoyl-VVAAEEEE[PEG6] / II: cyclo(KKKR[dP]); amide I:C-II:1)", "values": [{"measurement": "neurite number, BDNF PA versus native BDNF protein", "setting": "[1]", "value": "no statistical differences"}, {"measurement": "number of primary neurites", "setting": "[1]; vs control conditions", "value": "positive tendency"}, {"measurement": "number of secondary neurites", "setting": "[1]; vs control conditions", "value": "significant increase"}, {"measurement": "total dendrite and axon length", "setting": "[1]; vs native BDNF protein and control conditions", "value": "significant increase"}, {"measurement": "number of action potentials", "setting": "cortical neurons", "value": "higher number of action potentials"}, {"measurement": "final average limb behavioral score (Basso Mouse Scale)", "setting": "[2]; 12 weeks after injury, BDNF PA co-assembled at 20 mol % with E2 PA gel, injected 24 h after injury", "value": 3.7}, {"measurement": "rate of hindlimb improvement", "setting": "[2]; first three weeks following injury", "value": "increased rate of hindlimb improvement"}, {"measurement": "hindlimb function", "setting": "[2]", "value": "increased functional hind limb recovery"}, {"measurement": "hindlimb function", "setting": "[2]; listed as BDNF mimetic PA", "value": "significant improvement in hindlimb function"}]}]}
